Measured values taken from patent US10894772B2, “Flavor modulator having pyridine derivative or salt thereof as active ingredient” (T. HASEGAWA CO., LTD., priority 2015, dated 2021).

Assays:
Type in all cases: in vivo
[1] = tested on: panelists; test: Flavor evaluation of ethanol solution (bottle mouth and flavor paper); conditions: 1% ethanol solution, typical evaluation, 5 panelists
Method: (§1) A 1% ethanol solution of the invention products 1 to 6 prepared in Examples 1 to 6 was prepared as an evaluation solution. The evaluation solution was prepared in a sample bottle. Regarding the flavor of the sample smelling from the bottle mouth and the flavor of a flavor paper prepared by infiltrating the evaluation solution into a paper, well-trained 5 panelists tested the solution for flavor evaluation.
as §1, with “0.1%” for “1%”, “product 101 (2-(3-benzyloxypropyl)pyridine)” for “products 1 to 6”, “Example 101” for “Examples 1 to 6”, “evaluation. A typical evaluation of the product is as follows.” for “evaluation.”

[2] = tested on: panelists; test: Confirmation of umami in water (point score); conditions: average point of 10 panelists, 0 no difference from control (water), 1 somewhat stronger, 2 stronger, 3 considerably stronger, 4 poor taste balance
Method: As a comparative product, a solution was prepared by dissolving the comparative product 1 (2-(2-benzyloxyethyl)pyridine) to have the same concentration. Water with no addition was prepared as a control product. Well-trained 10 panelists tasted the solutions prepared by dissolving any the invention products 1 to 6 and the comparative product 1 for organoleptic evaluation of umami.
Umami evaluation was based on the control product of water.

[3] = tested on: panelists; test: Confirmation of umami imparting and saltiness enhancing effect in 0.3 mass % sodium chloride (point score); conditions: average point of 10 panelists vs control, 0 no change, 1 slightly higher, 2 higher, 3 considerably higher, 4 extremely higher umami and saltiness, 5 bitter as lacking balance
Method: An aqueous 0.3 mass % sodium chloride solution (control), and solutions of the invention products 1 to 6 each dissolved in a 0.3 mass % sodium chloride solution to have the concentration shown in Table 5 were prepared. As a comparative product, a solution was prepared by dissolving the comparative product 1 in 0.3 mass % sodium chloride. Well-trained 10 panelists tasted the solutions for organoleptic evaluation of umami impartment and saltiness enhancement.
Umami and saltiness scores are as follows, based on the aqueous 0.3 mass % sodium chloride solution as a control. Each sample was given any of a point 0, no change from control; 1, slightly higher umami and saltiness than control; 2, higher umami and saltiness than control; 3, considerably higher umami and saltiness than control; 4, extremely higher umami and saltiness than control; and 5, bitter as lacking balance of umami and saltiness.

[4] = 0.05 ppb in aqueous 0.3 mass % sodium chloride solution
[5] = 0.1 ppb in aqueous 0.3 mass % sodium chloride solution
[6] = 0.1 ppm in aqueous 0.3 mass % sodium chloride solution
[7] = 0.5 ppm in aqueous 0.3 mass % sodium chloride solution
[8] = 1 ppb in aqueous 0.3 mass % sodium chloride solution
[9] = 2 ppm in aqueous 0.3 mass % sodium chloride solution
[10] = 10 ppb in aqueous 0.3 mass % sodium chloride solution
[11] = 10 ppm in aqueous 0.3 mass % sodium chloride solution
[12] = 50 ppm in aqueous 0.3 mass % sodium chloride solution

Row | SMILES | Flavor Evaluation [1] | umami (average point) ([2]; 0.1 ppm in water) | umami (average point) ([2]; 1 ppm in water) | umami (average point) ([2]; 2 ppb in water) | umami (average point) ([2]; 10 ppb in water) | umami (average point) ([2]; 20 ppm in water) | umami (average point) ([2]; 200 ppm in water) | umami (average point) ([2]; 500 ppm in water) | umami (average point) ([2]; 2000 ppm in water) | umami and saltiness (average point) [3, 4] | umami and saltiness (average point) [3, 5] | umami and saltiness (average point) [3, 6] | umami and saltiness (average point) [3, 7] | umami and saltiness (average point) [3, 8] | umami and saltiness (average point) [3, 9] | umami and saltiness (average point) [3, 10] | umami and saltiness (average point) [3, 11] | umami and saltiness (average point) [3, 12]
1 | c1ccc(COCCCCc2ccccn2)cc1 [invention product 1, 2-(4-benzyloxybutyl)pyridine] | Earthy | 1.6 | 2.3 | 0.0 | 0.8 | 2.9 | 3.4 | 3.8 | 4.0 | 0.0 | 0.8 | 3.2 | 3.7 | 1.4 | 4.3 | 2.3 | 4.7 | 4.9
2 | c1ccc(CCOCCc2ccccn2)cc1 [invention product 2, 2-(2-phenylethoxyethyl)pyridine] | Earthy, hyacinthine | 1.5 | 2.0 | 0.0 | 0.7 | 2.8 | 3.2 | 3.8 | 4.0 | 0.0 | 0.7 | 3.0 | 3.9 | 1.5 | 4.4 | 2.4 | 4.6 | 5.0
3 | COc1ccc(COCCCc2ccccn2)cc1 [invention product 3, 2-[3-(p-methoxybenzyloxy)propyl]pyridine] | Bitter almond | 1.4 | 2.1 | 0.0 | 0.8 | 2.8 | 3.0 | 3.6 | 3.9 | 0.0 | 0.8 | 3.3 | 3.5 | 1.6 | 4.2 | 2.6 | 4.8 | 4.9
4 | c1ccc(CCSCCc2ccccn2)cc1 [invention product 4, 2-(2-phenylethylthioethyl)pyridine] | Metallic spicy savor | 1.6 | 2.2 | 0.0 | 0.7 | 3.0 | 3.6 | 3.9 | 4.0 | 0.0 | 0.6 | 3.4 | 3.8 | 1.8 | 4.5 | 2.3 | 4.8 | 5.0
5 | Cc1ccc(COCCCc2ccccn2)cc1 [invention product 5, 2-[3-(p-methylbenzyloxy)propyl]pyridine] | Nutty | 1.4 | 2.0 | 0.0 | 0.6 | 2.7 | 3.1 | 3.6 | 3.9 | 0.0 | 0.8 | 3.0 | 3.6 | 1.5 | 4.2 | 2.2 | 4.6 | 4.8
6 | Cc1ccc(C)c(COCCCc2ccccn2)c1 [invention product 6, 2-[3-(2,5-dimethylbenzyloxy)propyl]pyridine] | Rummy | 1.2 | 2.0 | 0.0 | 0.5 | 2.6 | 3.0 | 3.6 | 3.9 | 0.0 | 0.5 | 2.9 | 3.5 | 1.3 | 4.1 | 2.0 | 4.6 | 4.8
